{"source": "ChEMBL document CHEMBL5154941", "about": "“Structural Modifications of Nimodipine Lead to Novel PDE1 Inhibitors with Anti-pulmonary Fibrosis Effects” (J Med Chem, 2022)", "key": {"[1]": {"target": "T1, Dual specificity calcium/calmodulin-dependent 3',5'-cyclic nucleotide phosphodiesterase 1C (Homo sapiens, UniProt Q14123)", "T1 sequence (Q14123 whole entry, the tested form may be a part)": "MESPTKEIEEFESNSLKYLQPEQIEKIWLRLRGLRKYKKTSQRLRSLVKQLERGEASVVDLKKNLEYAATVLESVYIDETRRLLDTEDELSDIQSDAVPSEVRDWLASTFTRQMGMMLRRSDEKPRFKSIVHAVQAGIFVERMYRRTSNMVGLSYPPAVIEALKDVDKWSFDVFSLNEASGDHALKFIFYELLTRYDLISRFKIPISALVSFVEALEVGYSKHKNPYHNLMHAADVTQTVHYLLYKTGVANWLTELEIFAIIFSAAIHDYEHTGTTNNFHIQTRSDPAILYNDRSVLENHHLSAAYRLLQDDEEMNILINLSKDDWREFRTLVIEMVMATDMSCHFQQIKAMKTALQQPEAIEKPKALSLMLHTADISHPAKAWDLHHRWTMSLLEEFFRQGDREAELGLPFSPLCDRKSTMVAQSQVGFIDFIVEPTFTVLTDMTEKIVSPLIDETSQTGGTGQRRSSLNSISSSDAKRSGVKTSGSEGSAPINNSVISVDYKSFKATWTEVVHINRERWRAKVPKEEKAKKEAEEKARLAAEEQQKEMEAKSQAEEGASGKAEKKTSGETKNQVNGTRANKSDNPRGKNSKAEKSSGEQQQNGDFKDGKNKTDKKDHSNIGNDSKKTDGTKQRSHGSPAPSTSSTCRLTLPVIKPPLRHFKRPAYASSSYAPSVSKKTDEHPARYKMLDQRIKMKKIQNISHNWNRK", "assay": "Inhibition of PDE1C (147 to 531 residues) (unknown origin) expressed in Escherichia coli BL21 at 1000 nM [3H]-cGMP as substrate measured for 15 mins by liquid scintillation counter method relative to control"}, "[2]": {"target": "T1, Dual specificity calcium/calmodulin-dependent 3',5'-cyclic nucleotide phosphodiesterase 1C", "assay": "Inhibition of PDE1C (147 to 531 residues) (unknown origin) expressed in Escherichia coli BL21 using [3H]-cGMP as substrate measured for 15 mins by liquid scintillation counter method"}, "Rattus norvegicus [3]": {"system": "Rattus norvegicus", "assay": "Antifibrotic activity in bleomycin-induced Sprague-Dawley rat lung fibrosis model assessed as decrease in alpha-smooth muscle actin level at 150 mg/kg, po administered daily for 28 days by Western blot analysis", "type": "functional, organism-based", "details": "time 28.0 day"}, "Rattus norvegicus [4]": {"system": "Rattus norvegicus", "assay": "Antifibrotic activity in bleomycin-induced Sprague-Dawley rat lung fibrosis model assessed as decrease in collagen I level at 150 mg/kg, po administered daily for 28 days by Western blot analysis", "type": "functional, organism-based", "details": "time 28.0 day"}, "Rattus norvegicus [5]": {"system": "Rattus norvegicus", "assay": "Antifibrotic activity in bleomycin-induced Sprague-Dawley rat lung fibrosis model assessed as decrease in fibronectin level at 150 mg/kg, po administered daily for 28 days by Western blot analysis", "type": "functional, organism-based", "details": "time 28.0 day"}}, "note": "Activity calls are given as the source filed them. The calls are words filed in the database; no cut-off is given here."}
{"smiles": "COC(=O)C1=C(C)NC(C)=C(C(=O)OC)C1c1ccc(F)c(F)c1", "values": [{"measurement": "inhibition", "setting": "[1]", "value": 42, "unit": "%"}]}
{"smiles": "COC(=O)C1=C(C)NC(C)=C(C(=O)OC)C1c1cccc(C#N)c1", "values": [{"measurement": "inhibition", "setting": "[1]", "value": 25, "unit": "%"}]}
{"smiles": "COC(=O)C1=C(C)NC(C)=C(C(=O)OC)C1c1cccc(OC)c1", "values": [{"measurement": "inhibition", "setting": "[1]", "value": 7, "unit": "%"}]}
{"smiles": "CCOC(=O)C1=C(C)NC(C)=C(C(=O)OC)C1c1cccc([N+](=O)[O-])c1", "note": "(configuration not stated) [NITRENDIPINE]", "values": [{"measurement": "IC50", "setting": "[2]", "value": 1850, "unit": "nM"}]}
{"smiles": "Cc1ccc(=O)n(-c2ccccc2)c1", "values": [{"measurement": "Activity", "setting": "Rattus norvegicus [3]", "value": "Active"}, {"measurement": "Activity", "setting": "Rattus norvegicus [4]", "value": "Active"}, {"measurement": "Activity", "setting": "Rattus norvegicus [5]", "value": "Active"}]}
